Measured values as given in ChEMBL document CHEMBL1124969, “GABA agonists and uptake inhibitors. Synthesis, absolute stereochemistry, and enantioselectivity of (R)-(-)- and (S)-(+)-homo-beta-proline” (J Med Chem, 1990).

What was measured:
GABA B receptor = GABA B receptor (Rattus norvegicus, UniProt O88871+Q9Z0U4); assay: In vitro binding affinity against Gamma-aminobutyric acid type B receptor in rat brain synaptic membranes at pH 7.4; assay type: cell membranes
[1] = target: GABA-A receptor; anion channel; assay: In vitro binding affinity against Gamma-aminobutyric acid A receptor in rat brain synaptic membranes at pH 7.1; assay type: cell membranes

Sequence of GABA B receptor (Q9Z0U4 whole entry): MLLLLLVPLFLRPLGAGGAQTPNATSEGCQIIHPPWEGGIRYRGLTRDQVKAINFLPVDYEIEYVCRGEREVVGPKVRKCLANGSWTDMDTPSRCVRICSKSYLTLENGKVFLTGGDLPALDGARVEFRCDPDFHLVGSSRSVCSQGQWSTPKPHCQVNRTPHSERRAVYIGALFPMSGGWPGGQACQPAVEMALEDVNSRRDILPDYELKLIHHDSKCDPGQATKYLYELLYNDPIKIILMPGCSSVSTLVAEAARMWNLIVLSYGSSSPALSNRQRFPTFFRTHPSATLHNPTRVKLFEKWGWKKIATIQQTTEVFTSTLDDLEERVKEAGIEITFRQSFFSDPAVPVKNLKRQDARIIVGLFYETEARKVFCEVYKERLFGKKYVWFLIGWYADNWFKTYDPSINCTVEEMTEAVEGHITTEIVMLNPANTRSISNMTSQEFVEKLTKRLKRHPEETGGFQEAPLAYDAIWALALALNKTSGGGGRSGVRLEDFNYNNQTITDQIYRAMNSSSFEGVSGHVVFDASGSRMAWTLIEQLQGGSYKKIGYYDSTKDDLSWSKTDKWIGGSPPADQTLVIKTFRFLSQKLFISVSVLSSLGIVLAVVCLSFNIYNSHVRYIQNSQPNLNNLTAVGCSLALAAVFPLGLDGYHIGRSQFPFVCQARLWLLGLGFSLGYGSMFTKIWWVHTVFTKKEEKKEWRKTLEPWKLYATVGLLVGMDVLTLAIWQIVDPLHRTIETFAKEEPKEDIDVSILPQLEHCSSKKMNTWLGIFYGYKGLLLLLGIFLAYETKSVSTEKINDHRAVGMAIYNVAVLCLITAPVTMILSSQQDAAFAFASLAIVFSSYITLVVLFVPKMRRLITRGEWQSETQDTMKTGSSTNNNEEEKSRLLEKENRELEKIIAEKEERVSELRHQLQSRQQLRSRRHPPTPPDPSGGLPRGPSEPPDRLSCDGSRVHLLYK
Sequence of GABA B receptor (O88871 whole entry): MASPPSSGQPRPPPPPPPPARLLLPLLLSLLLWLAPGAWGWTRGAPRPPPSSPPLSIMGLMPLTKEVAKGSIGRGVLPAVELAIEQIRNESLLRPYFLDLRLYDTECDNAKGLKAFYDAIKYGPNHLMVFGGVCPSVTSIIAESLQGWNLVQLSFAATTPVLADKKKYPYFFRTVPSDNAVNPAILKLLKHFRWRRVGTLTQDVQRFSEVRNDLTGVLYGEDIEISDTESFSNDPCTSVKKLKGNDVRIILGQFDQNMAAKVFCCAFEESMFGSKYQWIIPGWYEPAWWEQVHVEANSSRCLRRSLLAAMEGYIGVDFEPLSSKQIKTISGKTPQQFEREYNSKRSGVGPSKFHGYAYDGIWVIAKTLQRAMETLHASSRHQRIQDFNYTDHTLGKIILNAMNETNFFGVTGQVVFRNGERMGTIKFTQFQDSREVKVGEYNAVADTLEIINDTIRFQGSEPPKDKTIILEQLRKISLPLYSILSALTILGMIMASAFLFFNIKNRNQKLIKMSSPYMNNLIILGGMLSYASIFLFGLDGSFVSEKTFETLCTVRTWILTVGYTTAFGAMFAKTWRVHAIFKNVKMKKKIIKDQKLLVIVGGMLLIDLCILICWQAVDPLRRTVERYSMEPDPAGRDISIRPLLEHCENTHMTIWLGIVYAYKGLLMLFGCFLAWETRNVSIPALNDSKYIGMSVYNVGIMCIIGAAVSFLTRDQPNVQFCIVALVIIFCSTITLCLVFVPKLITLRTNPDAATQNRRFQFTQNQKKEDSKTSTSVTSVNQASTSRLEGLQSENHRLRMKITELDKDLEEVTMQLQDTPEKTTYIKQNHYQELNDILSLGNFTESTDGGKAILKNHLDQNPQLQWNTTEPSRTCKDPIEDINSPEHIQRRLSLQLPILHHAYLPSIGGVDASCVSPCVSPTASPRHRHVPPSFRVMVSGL

Row | IC50 (GABA B receptor) [nM] | IC50 [1] [nM] | SMILES
1 | > 100000 | 70 | O=C(O)C[C@H]1CCNC1
2 | 7800 | 900 | O=C(O)C[C@@H]1CCNC1
3 | 14100 | 200 | O=C(O)CC1CCNC1 (racemic)
